Reference: US20250312338A1, “TREATMENT OF NEUROLOGICAL DISORDERS” (Praxis Precision Medicines, Inc., priority 2022, published 2025)
≈ marks a conversion by molar mass, not a printed value. Entries after “also recorded” stand apart in the source; their conditions may differ. Like-named read-outs stand apart in the source and are kept apart here.

Key:
[1] = in vivo
Description: (§2) This was a 2-part randomized, placebo-controlled Phase 1 trial in healthy participants aged 18-55 years. […] PD effects were examined on quantitative EEG (qEEG; resting and vigilant conditions) and stimulated EEG using auditory steady state response (ASSR). A total of 48 participants were enrolled; Part A, n=30; Part B, n=18.

[2] = biological target: T1, human NaV1.6 (Homo sapiens, UniProt Q9UQD0); assay: Peak INa use dependent block (UDB-10 Hz), PatchXpress patch clamp; assay type: cell-based; conditions: hNaV1.6
T1 construct: HEK-293 cell lines stably expressing either human NaV1.6 (NP_055006); expressed in transfected cells

[3] = tested on: MES-induced seizures in male CD-1 mice; assay: Maximal electroshock seizure (MES) test; assay type: in vivo, mouse
Description: Food and water were available ad libitum.
VPA was prepared in saline (Vehicle 1). All solutions were protected from light. All compounds and vehicles were dosed at 10 ml/kg.
The MES test was carried out over two days with 6 of 12 mice from each treatment group being tested on each day. Mice were brought to the test room at least one hour before the start of the experiment.
A Grass S88x (Grass Technologies of Astro-Med, Inc., West Warwick, RI) Stimulus Isolation Unit (A385, WPI Inc., USA) was set to deliver a 50 mA square-wave stimulus, with a 0.8 second duration, a pulse width of 10 msec, and a frequency of 50 Hz. A pair of custom stainless steel electrodes were soaked in 0.2% Agar, and then the subject received bilateral transauricular stimulation through ear-clip electrodes. During the stimulation, mice were manually restrained. They were then released into the observation cage for convulsion observation for 60 seconds immediately after stimulation. Each mouse was observed continuously by individuals blinded to treatment conditions and results were recorded.
Anti-seizure assessment endpoints were: (1) latency of hindlimb tonic flexion; (2) latency of hindlimb tonic extension; (3) total #hindlimb tonic flexions; (4) total #hindlimb tonic extensions; (5) latency to death; and (6) mortality rate
From these fitted curves, ED50 and EC50 values were calculated.

[4] = in vivo; conditions: male, CD-1, mouse
Description: (§3) Male CD-1 mice, 6-weeks old, were obtained from Vital River (Beijing, China). The average body weight was 25-35 g at the time the experiments were carried out. The mice were housed in groups of 3-5 under controlled conditions (temperature: 20-26° C.; humidity: 40-70%; air exchange rate: 10-15 cycles/hour; 12:12 light-dark cycle with lights on at 5:00 a.m.). Food and water were available ad libitum. The mice were acclimated to these conditions for 6 days before the start of the studies.
(§4) Dosing solutions were prepared on each experiment day. […] All solutions were protected from light. Samples from dosing solutions were stored at 4° C. Both compound and vehicle were dosed at 10 ml/kg.
(§5) The sLMA test was carried out over two days. 5 of 10 mice from each treatment group were tested on each day. All animals were marked on the tail with a permanent marker and weighed. Mice were randomly assigned into one of the four treatment groups. Animals were acclimated to the test room at least 30 minutes before the start of the experiment.
(§6) Possible side effects, such as overt sedation, were recorded just before the start of the sLMA test.
(§7) Each mouse was automatically tracked with overhead cameras using a 1-minute sampling window in an isolated chamber. Spontaneous locomotor activity was then analyzed offline using the Animal Behavior Video Tracking Analysis System (Ji Liang Software Technology Co., Ltd., Shanghai, China).
(§8) Locomotor status was defined as >2 mm of movement in every 200 ms (Frame-rate recorded was 20 frames/second. Locomotor status was identified in every 4 frame-to-frame interval. The accumulated shift of tracking spots that exceeded 2 mm in every 4 frame intervals was identified as a locomotor epoch). Traveling distance was calculated automatically from all the locomotion epochs and analyzed.
(§9) All mice were anesthetized with CO2. Then, terminal plasma and brain tissue samples were collected from animals in the drug treatment groups. 500 μL whole blood was collected via cardiac puncture and placed in tubes with 10 μL EDTAK2. The tubes were then placed in wet ice until centrifuged at 2000 g for 5 minutes at 4° C. The supernatant plasma was pipetted into Eppendorf tubes.
(§10) Data are presented as mean±s.e.m., and p<0.05 was regarded as statistically significant.
(§11) Calculating TD50 and TC50 values Dose-response and concentration-response curves for plasma and brain were fitted for each end-point using GraphPad Prism. From these fitted curves, TD50 and TC50 values were calculated.
(§12) Compound 1 and CBZ were prepared individually in 35% HPBCD. […] All solutions were dosed at 10 mL/kg. Just before the start of the sLMA test, possible side effects such as overt sedation were recorde.

[5] = tested on: male CD-1 mice; assay: Spontaneous locomotor activity (sLMA) test
Description: as §3, §4, §5, §6, §7, §8, §9, §10, §11, §12

[6] = Open-label study in DEE patients, pharmacokinetics (preliminary data); assay type: in vivo, human
Description: The purpose of this study is to evaluate the safety and tolerability of Compound 1, to assess the effect of Compound 1 on the frequency of motor seizures, and to characterize the pharmacokinetics (PK) of oral suspension Compound 1 in patients with developmental and epileptic encephalopathies (DEE).
This is an open-label proof of concept study with 3 cohorts of DEE patients (SCN2A, SCN8A, and Tuberous Sclerosis Complex (TSC)) between 2 years old and 17 years old. There will be an 8-week screening period followed by a 16-week treatment period comprised of 8-week dose optimization period and 8-week maintenance period, and a 4-week safety follow-up period or roll-over into LTE. The rationale for 16-week treatment period is based on the current knowledge of Compound 1 pharmacokinetics, which is predicted to potentially take about 6 weeks to achieve 90% steady state. The 8-week dose optimization period allows for adjusting concomitant SCBs and the additional 8 weeks will allow for evaluation of tolerability and efficacy signal during the maintenance period.
Dosing will be guided by preclinical data (targeting concentration between EC50 and EC90 from MES model) and modeling from adult PK data, and duration of dose optimization phase will be predicated on adult PK data. During the dose optimization period, the dose adjustment will be as follows. […]

[7] = Phase 1 single/multiple ascending dose and food effect trial, pharmacokinetics; assay type: in vivo, human; conditions: for Tmax: human, plasma
Description: (§1) This was a 3-part Phase 1 clinical trial in healthy participants aged 18-55 years. Parts A and B were randomized, placebo-controlled and evaluated the effects of single (2.5-150 mg) and multiple (30-120 mg, 14 days QD (every day)) ascending oral doses of Compound 1, respectively. Part C was an open-label, randomized, crossover design evaluating the PK of a single oral dose (90 mg) in fasted and fed states. In Parts A (n=64) and B (n=32), participants were randomized 3:1 to Compound 1 or placebo (n=8/cohort). In Part C (n=16), participants were randomized 1:1 to one of two treatment sequences receiving a single dose of 90 mg Compound 1 in the fed (following a high-fat/high calorie meal) or fasted (>10 hours after the last, and 4 hours before the next, meal) state.

[8] = tested on: healthy participants; assay: Phase 1 single/multiple ascending dose and food effect trial, safety and tolerability; assay type: in vivo, human; conditions: whole trial
Description: as §1

[9] = tested on: healthy participants; assay: Phase 1 28-day trial (Part A 90 mg; Part B OXC + 120 mg), safety and tolerability; assay type: in vivo, human
Description: as §2

[10] = Half-life of Compound 1 as stated in dosing guidance of Example 13; conditions: human, in vivo
[11] = Phase 1 28-day trial (Part A 90 mg; Part B OXC + 120 mg), pharmacokinetics
Description: as §2

T1 sequence (Q9UQD0 whole entry): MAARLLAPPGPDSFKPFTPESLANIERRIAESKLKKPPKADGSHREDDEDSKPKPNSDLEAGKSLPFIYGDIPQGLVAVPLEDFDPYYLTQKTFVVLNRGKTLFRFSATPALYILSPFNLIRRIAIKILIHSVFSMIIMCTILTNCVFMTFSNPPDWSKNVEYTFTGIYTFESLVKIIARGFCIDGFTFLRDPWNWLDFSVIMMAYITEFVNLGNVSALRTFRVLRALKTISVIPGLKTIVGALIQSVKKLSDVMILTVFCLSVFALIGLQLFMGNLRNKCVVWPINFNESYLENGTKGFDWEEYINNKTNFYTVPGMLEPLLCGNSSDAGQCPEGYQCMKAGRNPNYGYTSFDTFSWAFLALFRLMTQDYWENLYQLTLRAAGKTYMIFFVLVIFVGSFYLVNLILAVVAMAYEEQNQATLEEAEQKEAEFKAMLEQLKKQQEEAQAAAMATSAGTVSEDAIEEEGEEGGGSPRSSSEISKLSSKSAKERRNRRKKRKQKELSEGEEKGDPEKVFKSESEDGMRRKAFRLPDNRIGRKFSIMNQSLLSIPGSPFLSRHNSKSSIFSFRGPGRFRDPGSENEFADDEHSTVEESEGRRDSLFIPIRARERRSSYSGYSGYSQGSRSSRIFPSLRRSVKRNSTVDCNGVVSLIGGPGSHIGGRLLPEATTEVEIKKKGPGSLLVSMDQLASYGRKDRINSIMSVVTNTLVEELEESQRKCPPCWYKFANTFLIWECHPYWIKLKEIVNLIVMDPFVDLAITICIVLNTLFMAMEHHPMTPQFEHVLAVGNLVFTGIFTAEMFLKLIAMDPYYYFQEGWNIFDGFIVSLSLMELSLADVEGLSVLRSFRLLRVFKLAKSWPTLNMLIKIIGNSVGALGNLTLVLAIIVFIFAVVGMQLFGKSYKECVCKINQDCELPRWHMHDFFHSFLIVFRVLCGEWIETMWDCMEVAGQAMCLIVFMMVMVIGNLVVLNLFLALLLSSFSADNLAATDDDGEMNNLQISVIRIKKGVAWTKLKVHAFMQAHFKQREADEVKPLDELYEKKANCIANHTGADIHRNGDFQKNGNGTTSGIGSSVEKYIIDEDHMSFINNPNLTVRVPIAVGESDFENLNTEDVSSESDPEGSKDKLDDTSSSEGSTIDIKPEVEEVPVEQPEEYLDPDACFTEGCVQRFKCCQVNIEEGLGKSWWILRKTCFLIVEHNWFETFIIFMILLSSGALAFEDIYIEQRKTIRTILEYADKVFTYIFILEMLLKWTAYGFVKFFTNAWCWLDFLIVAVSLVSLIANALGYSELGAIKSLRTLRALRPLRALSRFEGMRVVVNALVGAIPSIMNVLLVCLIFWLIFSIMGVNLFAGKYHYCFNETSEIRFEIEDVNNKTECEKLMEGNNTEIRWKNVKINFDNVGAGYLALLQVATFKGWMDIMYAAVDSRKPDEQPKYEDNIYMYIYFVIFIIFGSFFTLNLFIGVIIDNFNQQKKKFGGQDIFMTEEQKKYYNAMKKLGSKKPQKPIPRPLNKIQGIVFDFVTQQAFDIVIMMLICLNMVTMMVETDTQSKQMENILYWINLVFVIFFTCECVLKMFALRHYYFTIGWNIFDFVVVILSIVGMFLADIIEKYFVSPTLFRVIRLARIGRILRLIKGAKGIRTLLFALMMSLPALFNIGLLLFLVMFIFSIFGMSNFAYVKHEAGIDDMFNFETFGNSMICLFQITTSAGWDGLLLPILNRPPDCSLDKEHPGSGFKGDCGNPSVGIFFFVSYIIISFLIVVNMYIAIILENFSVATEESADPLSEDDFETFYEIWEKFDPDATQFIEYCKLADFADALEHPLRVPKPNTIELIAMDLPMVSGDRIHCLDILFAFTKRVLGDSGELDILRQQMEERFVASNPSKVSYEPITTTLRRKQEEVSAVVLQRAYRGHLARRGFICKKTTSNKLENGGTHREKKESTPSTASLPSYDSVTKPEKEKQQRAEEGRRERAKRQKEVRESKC

## NC(=O)N1c2ccccc2CC(O)c2ccccc21 (stereo not shown) [10-Hydroxycarbamezapine]
[1]
  exposure when administered concomitantly with Compound 1 vs alone: similar

## NC(=O)N1c2ccccc2C=Cc2ccccc21 [Carbamazepine]
[2]; frequency increased to 30 Hz or 50 Hz
  use-dependent block of peak INa (in words): could be observed
[2]; stimulation frequency 10 Hz
  use-dependent block of peak INa (in words): not observed
[3]; 30 mg/kg
  mice protected from MES-induced tonic hindlimb seizures: all mice
[4]; in vivo
  EC50: 19000 nM
[5]; mouse, in vivo
  sLMA at the dose required for complete seizure prevention: significant reduction

## NC(=O)O[C@@H](Cn1ncnn1)c1ccccc1Cl [Cenobamate]
[2]
  Ratio to Peak INa (TB) (TB / UDB-10 Hz): 2.3

## CCOC(F)(F)c1nnc2cnc(-c3cnc(OCC(F)(F)F)c(F)c3)cn12 [Compound 1]
[6]; after 28 days of once daily dosing and auto-titration
  approach to steady state: approaches steady state
[6]; first 12 DEE participants, preliminary
  Compound 1 exposures on Day 1 (after single dose): above therapeutic range; also recorded: above predicted therapeutic levels
[7]; 90 mg single dose
  increase in AUC, fed vs fasted: 14%
  increase in Cmax, fed vs fasted: 9%
[7]; oral, 90 mg, 90 mg single dose, fasted, read-out: tmax, fasted state
  Tmax: 2.5 h
[7]; oral, 90 mg, 90 mg single dose, fed, read-out: tmax, fed state
  Tmax: 4 h
[7]; po, healthy adults, read-out: time to observed maximum concentration (tmax)
  Tmax: 2 to 3 h
[7]; over the evaluated dose range
  exposure vs dose: increased dose proportionally
[8]
  TEAEs that were mild: > 92%
[9]; Part A
  TEAEs mild or moderate: 100%
  TEAEs moderate in severity: 29%
[9]; Part A, 90 mg
  tolerability in healthy adults: well tolerated
[9]; Part A, 90 mg QD 28 days vs placebo, 35 TEAEs across 13 participants
  TEAEs mild in severity: 71%
[9]; Part B
  review of ALT/AST increases and rhabdomyolysis: did not identify a causal association
[10]
  half-life: ~96 h
[4]; plasma (free concentration), oral
  EC50: 309 nM
[5]; 10 mg/kg
  effect on locomotor function: no effect
[5]; 20 and 40 mg/kg p.o.
  total traveling distance in the 30-minute sLMA test: significantly reduced; also recorded: reductions
[5]; free brain concentration
  TC50 (free brain) Tolerability (sLMA): 69.7 nM
  TC50 in brain, free (sLMA): 69.7 nM
[5]; free plasma concentration
  TC50 in plasma, free (sLMA): 308.9 nM
[5]; total brain concentration
  TC50 in brain (sLMA): 1899 ng/g
[5]; total plasma concentration
  TC50 in plasma (sLMA): 1.553 µg/mL (≈ 3.81 µM)
[11]
  increase in Compound 1 concentrations over the human-equivalent dose required for efficacy in preclinical MES models: 13 fold
[11]; 90 mg for 28 days
  approach to steady state: approached steady state

## Nc1nnc(-c2cccc(Cl)c2Cl)c(N)n1 [Lamotrigine]
[2]; stimulation frequency 10 Hz
  use-dependent block of peak INa (in words): not observed
[3]; 10 mg/kg
  mice protected from MES-induced tonic hindlimb seizures: eight of 12
[4]; in vivo
  EC50: 20500 nM

## NC(=O)N1c2ccccc2CC(=O)c2ccccc21 [Oxcarbazepine, reference compound]
[9]; Part B, per arm
  patients in whom TEAEs were observed: 75%
[1]
  exposure when administered concomitantly with Compound 1 vs alone: similar
